Point of comparison: `COc1cc(-c2nc(NC(=O)c3cc4cc(C)cc(C)c4n3CC(=O)O)sc2CCC2CCCCC2)c(OC)cc1Cl`, melting point 241 °C. Against it:
- COC(=O)C1=C(C)NC(N)=C(C(=O)OC(C)C)C1c1ccccc1[N+](=O)[O-] (stereo not drawn) — lower, 203 °C
- O=C(Nc1ccccc1)Nc1cc(F)ccc1C(=O)O — lower, 163 to 166 °C
- CC(C)(C)C(=O)Oc1ccc(-c2nn(C3CCCC3)c3c(F)cccc23)cc1 — lower, 105 °C
- COCCN(C)C(=O)NCCNCC(O)COc1ccc(OCCOCC(C)C)cc1 (stereo not drawn) — lower, 60 to 63 °C
- O=C(Nc1c[nH]nc1C(=O)Nc1ccccc1)c1ccccn1 — higher, 281 to 282 °C
- COc1cc(C=CCn2cncn2)ccc1OCc1ccccc1 — lower, 70 to 72 °C
- O=C(O)/C=C/c1ccc(-c2nc3c(=O)n(CC4CC4)c(=O)n(CC4CC4)c3[nH]2)cc1 — higher, > 250 °C
- O=C(O)c1cn(C2CCCCC2)c2c(F)c(F)c(F)cc2c1=O — higher, 261 to 264 °C
- CC1CC(c2c[nH]c(-c3ccc(F)cc3)c2-c2ccncc2)=CCN1C (stereo not drawn) — lower, 198 to 201 °C
- OC1CC2OCCN3CCC4c5ccccc5N1C4C23 (stereo not drawn) — lower, 180 °C
- COc1cc(C(C)=O)cc(OC)c1OCCOc1ccc2ccccc2c1 — lower, 76 to 77 °C
- CNCCCCN1CC[C@H](NC(=O)c2cc(Cl)c(N)cc2OC)[C@H](OC)C1 (relative stereo) — lower, 129 °C
- CCC(=NC#N)N[C@@H]1c2cc(C#N)ccc2OC(C)(C)[C@H]1O (relative stereo) — lower, 122 to 124 °C
- Cn1ccnc1Sc1ccc(Nc2c(C#N)cnc3cc(N4CCC(N5CCCC5)CC4)c([N+](=O)[O-])cc23)cc1Cl — lower, 220 to 230 °C
- NNN=CN(N)CC(=O)O — lower, 148 to 149 °C
- Cn1ccc2c(-n3cc(C(=O)O)c4cccnc43)ncnc21 — higher, > 260 °C
- Nc1c(Br)cc(-c2nc3ccccc3s2)cc1Br — lower, 201 to 203 °C
- O=C1NC(=O)C(Cc2ccc(Oc3ccc(Oc4ccc(CC5OC(=O)NC5=O)cc4)cc3)cc2)O1 (stereo not drawn) — lower, 93 to 96 °C
- CC1CC(=O)c2c(ccc(F)c2Cl)N1 (single isomer, unassigned; (-)) — lower, 117 to 119 °C
- COC(=O)c1ccc(OCC2CC(=O)N(c3ccc(OC(C)(C)C)cc3)C2)cc1 (stereo not drawn) — lower, 126 to 128 °C
- COc1ccc2c3c(c(=O)oc2c1)CNCC3 — lower, 171 to 180 °C
- COc1ccc2c(c1)C(=O)c1cccc(OC)c1-2 — lower, 125 to 127 °C
- Nc1sc2c(c1C(=O)c1cc3ccccc3o1)CCC2 — lower, 126 to 129 °C
- COc1cc(C(=O)N2CCC(CCN3CCC(Nc4nc5ccccc5n4Cc4ccccn4)CC3)(c3ccc(F)cc3)C2)cc(OC)c1OC (stereo not drawn) — lower, 110 to 119 °C
- CSc1ccc(CC(=O)O)cc1Cl — lower, 106 to 108 °C
- CCC(=O)N(C(=O)CC)c1c(C#N)cnn1-c1ccc(Cl)c(Cl)c1Cl — lower, 133 to 134 °C
- CC1(C)CC(OC(=O)c2ccccc2)CC(C)(C)N1OC(N)=O — lower, 148 to 149 °C
- CN(C)C(C)(CO)c1cccs1 (stereo not drawn) — lower, 68 to 70 °C
- O=C1C2CC(c3ccc([N+](=O)[O-])cc3)(C2)C(=O)N1Cc1ccccc1 — lower, 150 to 152 °C
- Cc1ccc([N+](=O)[O-])cc1S(=O)(=O)n1ccnc1 — lower, 119 to 120 °C
- Cc1cncc2ncc(-c3ccccc3)cc12 — lower, 135 to 138 °C
- Cc1cc(Nc2ccccc2)nc(N)n1 — lower, 179 to 180 °C
- O=c1ccn(C2=CCN(Cc3ccc(Br)cc3)C=C2)cc1 — lower, 166 to 168 °C
- Cc1nc2c(CCc3ccccc3)cccn2c1CC#N — lower, 120 to 123 °C
- CCCCc1nc2c(N)nc(C)c(C)c2n1CC(C)(C)NC(=O)c1ccccc1 — lower, 150 to 152 °C
- O=c1cc(-c2ccccc2)c2c(OCc3nnn[nH]3)cc(OCc3nnn[nH]3)cc2o1 — lower, 222 to 224 °C
- CC1CCCN(CC(O)c2ccccc2)C1 (stereo not drawn) — lower, 70 °C
- CC(=O)NCC1CN(c2ccc(-n3cnc(Cn4cccn4)c3)c(F)c2)C(=O)O1 (stereo not drawn) — lower, 158 to 160 °C
- Cc1nnc2n1-c1sc(C(N)=O)cc1C(c1ccccc1Cl)=NC2 — lower, 230 to 232 °C
- COc1cc(Oc2cccc(SC(F)(F)F)c2)nc(C(=O)NC(C)C)c1 — lower, 70 to 76 °C
- COC(=O)C(Oc1ccc(C(C)(C)C)cc1Cl)c1ccc(Oc2ccc(Cl)cc2)cc1 (stereo not drawn) — lower, 85.5 to 88 °C
- COc1ccc(C(=CCCC(=O)O)c2ccc(OC)cc2)cc1 — lower, 113 to 114 °C
- O=C(OCc1ccc(-c2ccccc2)cc1)c1cccc(CCl)c1 — lower, 102 °C
- CC(=O)N1CC(CCN(C)C)Cc2ccc(OCc3ccc(-c4ccccc4)cc3)cc21 (stereo not drawn) — lower, 62 to 63.5 °C
- CCCOc1cc(C=CC(=O)N2CCN(c3ccc(NC(=N)c4cccs4)cc3)CC2)cc(OCCC)c1O — lower, 72 to 73 °C
- O=C(CCl)Nc1ccc2c(c1)CC(=O)N2 — lower, 166 to 170 °C
- CN1C(=O)C(c2ccc(OC(F)F)cc2)(c2cccc(CCCCO)c2)N=C1N (stereo not drawn) — lower, 63 to 66 °C
- COc1cc2c(cc1C)CCN(C)C2C1(c2ccsc2)CC1 (stereo not drawn) — lower, 103 to 105 °C
- Cc1nnc(-c2ccnc(Nc3ccc(S(C)(=O)=O)cc3)c2)o1 — higher, 244 to 245 °C
- CCOCc1cnc(NC(=O)C(Cc2ccc(F)cc2)c2ccc(S(C)(=O)=O)cc2)cn1 (stereo not drawn) — lower, 99 to 100 °C
- CC(C)(Cc1ccc(Cl)cc1)C(=O)Cn1cncn1 — lower, 127 °C
- COC(=O)c1cc2c3c(cc([N+](=O)[O-])c2[nH]1)N(C(=O)c1cc2cc(OC)c(OC)c(OC)c2[nH]1)CC3CCl (stereo not drawn) — higher, 246 to 248 °C
- COC(=O)c1cnc(N2CCN(Cc3ccccc3)CC2)nc1C — lower, 38 to 40 °C
- O=C(Nc1cc(Cl)c(O)c(Cl)c1)c1ccccc1O — lower, 217 to 219 °C
- CCN1CCN(CC)C2SC(=C(C(=O)OC(C)C)C(=O)OC(C)C)SC21 (stereo not drawn) — lower, 84 to 86 °C
- CCC(Cc1ccc(OCCN2CCCCC2)cc1)(C(=O)NO)S(=O)(=O)c1ccc(OC)cc1 (stereo not drawn) — lower, 75 °C
- COC(=O)C1=Cc2cc(-c3ccc(C(C)C)cc3)ccc2S(=O)(=O)CC1 — lower, 142 to 144 °C
- Cc1ccc(Oc2ccc(C3NC(C(=O)O)CS3)cc2C#N)c(O)c1 (stereo not drawn) — lower, 150 to 152 °C
- O=C(/C=C/C=C/C(=O)NCCCOc1cccc(CN2CCCC2)c1)NCCCOc1cccc(CN2CCCC2)c1 — lower, 178 to 180 °C
- COc1cc2cc(Cl)nc(N3CCN(C(=O)Nc4ccc([N+](=O)[O-])cc4)CC3)c2cc1OC — lower, 227 to 228 °C
- OC(c1ccccc1F)c1cc(C(F)(F)F)nc2c(C(F)(F)F)cccc12 (stereo not drawn) — lower, 120 to 121 °C
- CC(C)(C)c1cc(OCc2ccccc2-c2nnn[nH]2)cc(C(C)(C)C)c1O — lower, 149 to 150 °C
- CCOC(=O)COc1ccc2c(C)c(CCN(CC)CC)c(=O)oc2c1Cl — lower, 147 to 148 °C
- CCC(O)(c1cncc(OCc2ccc3ccccc3c2)c1)c1nccs1 (stereo not drawn) — lower, 48 to 50 °C
- CCCn1nc(C(C)C)c(C(=O)OCc2cccc(C(=O)c3ccccc3)c2)c1Cc1ccc(-c2ccccc2S(=O)(=O)NC(=O)OC(C)(C)C)c(F)c1 — lower, 55 to 59 °C
- COC(=O)C1=C(C)NC(C)=C(C(=O)OCC2COC3(CCCC3)O2)C1c1cccc([N+](=O)[O-])c1 (stereo not drawn) — lower, 58 to 67 °C
- COC(=O)C=CN1CCN(c2cccc(-n3cnc4cc(-c5ccoc5)ccc43)c2)CC1 — lower, 168 to 171 °C
- COc1ccc(CN2CCC(c3cn(Cc4ccoc4)c4cc(F)ccc34)CC2)cc1C(=O)O — lower, 228 to 229 °C
- COc1nn(CC(=O)C2CC2)c(=O)s1 — lower, 98 to 100 °C
- COc1cc(OC)cc(C(=O)N[C@H]2CCN(C)C[C@H]2c2ccccc2)c1 (relative stereo) — lower, 123 to 124 °C
- O=C1C=C(COCc2ccccc2)N=CC1OCc1ccccc1 (stereo not drawn) — lower, 103 to 131 °C
- OC1CC=C(c2ccc(C(F)(F)F)cc2)CC1 (stereo not drawn) — lower, 104 to 106 °C
- N#Cc1cn(-c2ccc(Cl)c(Cl)c2)c(=O)[nH]c1=O — lower, 206 to 208 °C
- CCOC(=O)Nc1cc(-n2cc(C(=O)OCC)c(=O)c3c(OCc4ccccc4)c(F)c(F)cc32)c(F)cc1F — lower, 130 to 134 °C
- O=c1c2[nH]cnc2n(CC2CCCCC2)c(=O)n1CC1CC1 — lower, 181 °C
- O=C1CC(c2c(-c3ccc[nH]3)[nH]c3ccc(Cl)cc23)C(=O)N1 (stereo not drawn) — lower, 138 to 144 °C
- CS(=O)CCNC(=O)c1cccc(-c2ccc3c(c2)C(c2ccc(Cl)cc2Cl)CC3)c1 (stereo not drawn) — lower, 112 to 113 °C
- O=C1OC(O)c2c(F)ccc(F)c21 (stereo not drawn) — lower, 125 to 128 °C
- CC(C)(C)OC(=O)N1CCN(C(=O)OC(C)(C)C)C(C(O)(Cc2ccccc2)Cc2ccccc2)C1 (stereo not drawn) — lower, 150 °C
- Cc1cc(CCCCCSc2ccc(C3=NCCO3)cc2)on1 — lower, 89 to 91 °C
- NNC1=NC2CCCc3cccc(c32)N1 (stereo not drawn) — lower, 191 to 193 °C
- O=C(c1cccs1)c1cnn2c(-c3cccc(NCc4ccco4)c3)ccnc12 — lower, 124 to 128 °C
- O=C(CCc1cccnc1)C12CC3CC(CC(C3)C1)C2 — lower, 43 to 44.5 °C
- CS(=O)(=O)Nc1c([N+](=O)[O-])cnn1-c1c(Cl)cc(C(F)(F)F)c(F)c1Cl — lower, 107 to 115 °C
- Cc1ccccc1C=CC=C1SC(=S)N(CC(=O)O)C1=O — lower, 210 to 217 °C
- O=C(Nc1ccccc1)Nc1cc(Cl)ccc1C(=O)O — lower, 186 to 188 °C
- O=C(O)CCC(=O)c1ccc(NC(=O)c2ccc(F)cc2)cc1 — higher, 253 to 255 °C
- C#CC1(OC(=O)NCCCC)CCN(CCC=C(c2ccc(F)cc2)c2ccc(F)cc2)CC1 — lower, 83 to 84 °C
- Cc1nc2c(N)nc3ccccc3c2n1CCOCCNC(=O)c1ccccc1 — lower, 210 to 212 °C
- CC(C)(C)OC(=O)N1C=CN(CC#N)C(=O)[C@@H]1Cc1ccccc1 — lower, 160 to 162 °C
- O=c1[nH]c(=O)n(CCCCN2CCC(OC(c3ccccc3)c3ccccc3)CC2)c2ccccc12 — lower, 131 to 133 °C
- Clc1ccc(N2CCN(Cc3c[nH]c4ncccc34)CC2)cc1Cl — lower, 219 to 220 °C
- COc1ccc2c(c1)OC(C)(C)CC2=O — lower, 77 to 78 °C
- CN(C)C=NS(=O)(=O)CCC(C)(C)CCI — lower, 105 to 106 °C
- CCCCCCCCCCC1SCCCN1C(=S)Nc1cccc(Br)c1 (stereo not drawn) — lower, 73 to 74 °C
- CCCCC(=O)OC(C)OC(=O)NC1(C(=O)O)CC1 (stereo not drawn) — lower, 148 to 151 °C
- CC(C)(C)OC(=O)Nc1cc([N+](=O)[O-])c2ncccc2c1 — lower, 134 to 135 °C
